The test system of assay [1] is gastric secretion. In words: Inhibition of gastric secretion (pylorus ligation, Shay method). It is filed as in vivo, Male Sprague-Dawley rats. The settings on record: 20 mg/kg intraduodenally, 5 hours; for Rel. Conc.: acid concentration relative to omeprazole; for Relative Acid Output: acid output relative to omeprazole; for Rel. Vol.: gastric juice volume relative to omeprazole. The method, boiled down:
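Rats under ether anaesthesia had the pylorus ligated, and the stomach was removed 5 h later. Gastric juice was centrifuged at 1,000 g, and its volume and acidity were measured. Relative volume, relative acid concentration and relative acid output […] were then calculated.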

In assay [2] the target is proton pump(H^+ /K^+ ATPase). In words: Inhibition of proton pump(H^+ /K^+ ATPase) activity. It is filed as biochemical. Particulars: pH 6.0, 37° C., 30 minutes preincubation and 30 minutes reaction; read-out: IC50 Test compound. The method, boiled down:
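Enzyme was preincubated with compound at five concentrations for 30 min at 37° C in Tris-HCl pH 6.0 with Mg2+, K+ and NH4Cl. Reaction ran 30 min at 37° C with ATP and was stopped with trichloroacetic acid. K+-stimulated inorganic phosphate release gave IC50 by Litchfield-Wilcoxon.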

The subject of assay [3] is H^+ /K^+ -ATPase. The assay can be described thus: Reversibility Test (Dilution and Washout method, gastric vesicles). Particulars: compound 50 μM. It is filed as biochemical. On the procedure:
Test 3. Reversibility Test
Gastric vesicles were prepared by the same method as in Experiment 4-1 of WO 94/14795. The inhibition mechanism of proton pump activity by the present invention compound was tested in accordance with the so-called Dilution and Washout method [see e.g., D. J. Keeling, et al., Biochemical Pharmacology, 42(1), 123-130(1991)].
Namely, test tubes were divided into two group, Groups 1 and 2. Each group was divided into four subgroups. 90 μl of 5 mM Pipes/Tris buffer(pH 7.4) and 10 μl of DMSO were added to subgroups 1 and 2 of each group. 90 μl of 5 mM Pipes/Tris buffer(pH 7.4) and 10 μl of the compound prepared in Example 43(50 μM) were added to subgroups 3 and 4 of each group. To all two groups, was added 100 μl of lyophilized vesicles at the concentration of 100 μg protein/ml and then preincubated at 37° C. for 15 minutes.
2 mM MgCl2 was added to subgroups 1 and 3 of Group 1. 2 mM MgCl2 and 10 mM KCl were added to subgroups 2 and 4 of Group 1. 3 mM ATP was added to all subgroups of Group 1 until the final volume became 500 μl. After incubation for 30 minutes, the inhibition of H^+ /K^+ -ATPase activity by the test compound was measured.
After preincubation as described above, each subgroup of Group 2 was diluted with 50-fold volume of 5 mM Pipes/Tris buffer(pH7.4) and then centrifuged for 60 minutes by means of Beckman ultracentrifuge(Model L8-80). The supernatant was discarded and washed out by 10 ml of 5 mM Pipes/Tris buffer(ph 7.4). The resulting pellet was suspended with 5 mM Pipes/Tris buffer (pH7.4) until the volume became the same as the preincubation volume.
Thereafter, in accordance with the treatment to Group 1, each subgroup of Group 2 was treated with 2 mM MgCl2, 10 mM KCl and 3 mM ATP. And the final volume of each subgroup of Group 2 was made to be 500 μl.
And it was further measured in accordance with the same procedures as above, except the compound prepared in Example 75 was used as a test compound.

The subject of assay [4] is proton pump. Particulars: in words, background; cited from earlier work.

pIC50: −log10 of the molar value.

The values below come from patent US5750531A, “Pyrimidine derivatives and processes for the preparation thereof” (Yuhan Corporation, priority 1994, dated 1998).

For the molecule `Cc1nc(N(C)c2ccccc2)nc(N2CCc3ccccc3C2)c1C.Cl` [Example 43, 5,6-dimethyl-2-(N-methylphenylamino)-4-(1,2,3,4-tetrahydroisoquinolin-2-yl)pyrimidine hydrochloride], in assay [1], the Rel. Conc. turned out to be 0.59, the “Relative Acid Output” value was found to be 0.82 and the Rel. Vol. came to 0.7. Moreover, in assay [2], the pIC50 was 6.30. For the same molecule, in assay [3], the “inhibition of H^+ /K^+ ATPase activity, after Dilution & Washout” value amounted to 6% and the “inhibition of H^+ /K^+ ATPase activity, before Dilution & Washout” value was 62%.

Take `Cc1nc(N2CCc3ccccc3C2)nc(Nc2ccc(F)cc2)c1C.Cl` [Example 75, 5,6-dimethyl-4-(4-fluorophenylamino)-2-(1,2,3,4-tetrahydroisoquinolin-2-yl)pyrimidine hydrochloride]: in assay [1], the Rel. Conc. turned out to be 1.62, the “Relative Acid Output” value was determined as 1.20 and the Rel. Vol. amounted to 1.3. For the same molecule, the pIC50 in assay [2] was 5.92. Besides, in assay [3], the “inhibition of H^+ /K^+ ATPase activity, after Dilution & Washout” value is recorded as 15% and the “inhibition of H^+ /K^+ ATPase activity, before Dilution & Washout” value amounted to 66.6%.

With `COc1ccc2[nH]c([S+]([O-])Cc3ncc(C)c(OC)c3C)nc2c1` (stereo not shown) [Omeprazole, omeprazole, reference compound], the “reversibility of proton pump inhibition” value in assay [4] is listed as “irreversible”.

Broadly, the pIC50 is the negative decadic logarithm of the IC50, by convention in mol/L.
